Values quoted from earlier work, collected in patent US7718201B2, “Method of inducing liver phase II enzymes” (Access Business Group International LLC, priority 2005, dated 2010).

Test system: quinone reductase in Hepa1c1c7 cells
Conditions: reference values; broccoli dependent on variety, form, extraction conditions

For `C[S+]([O-])CCCCN=C=S` (stereo not shown) [sulforaphane], the “Phase II enzyme induction activity (reported)” value is listed as 10^6 U/g.
